Our source for the IC50 and Km values is article PMC6332545, “Biochemical properties and subcellular localization of six members of the HXK family in maize and its metabolic contribution to embryo germination” (BMC Plant Biology, 2019).

Holding throughout (assay type): biochemical
The target in test [1] is T1, ZmHXK5Δ30 (Zea mays, UniProt A0A1D6MAK9).
T1 construct: N-terminal mitochondrial anchor deleted (87 nucleotides after the start codon, first 30 residues); E. coli BL21-CodonPlus(DE3)-RIL
Nature of the test: coupled G6PDH/NADP+ assay, A340. The settings on record: 2 mM MgCl2, pH 8.0. The text has this:
coupled G6PDH/NADP+ assay, A340 on ZmHXK5Δ30

Test [2] has as its target T2, ZmHXK6Δ30 (Zea mays, UniProt A0A1D6NCX2).
T2 construct: gene LOC103651223; N-terminal mitochondrial anchor deleted (87 nucleotides after the start codon, first 30 residues); E. coli BL21-CodonPlus(DE3)-RIL
Kind of test: coupled G6PDH/NADP+ assay, A340. The settings on record: 2 mM MgCl2, pH 8.0. The text has this:
coupled G6PDH/NADP+ assay, A340 on ZmHXK6Δ30

The target in test [3] is T3, ZmHXK4Δ30 (Zea mays, UniProt K7VX77).
T3 construct: gene LOC542510; N-terminal mitochondrial anchor deleted (87 nucleotides after the start codon, first 30 residues); E. coli BL21-CodonPlus(DE3)-RIL
Kind of test: coupled G6PDH/NADP+ assay, A340. Particulars: 2 mM MgCl2, pH 8.0. An excerpt: coupled G6PDH/NADP+ assay, A340 on ZmHXK4Δ30

In test [4] the target is T4, ZmHXK8 (Zea mays, UniProt B4FB85).
T4 construct: full length, soluble; E. coli BL21-CodonPlus(DE3)-RIL
Nature of the test: coupled G6PDH/NADP+ assay, A340. The settings on record: 50 mM Glc, 2 mM ATP, 2 mM MgCl2, pH 8.0; product inhibition; PEP/pyruvate kinase listed in the reaction medium; read-out: ADP. An excerpt:
coupled G6PDH/NADP+ assay, A340 on ZmHXK8

Test [5] deals with T5, ZmHXK7 (Zea mays, UniProt C0HF79).
T5 construct: full length, soluble; E. coli BL21-CodonPlus(DE3)-RIL
Kind of test: coupled G6PDH/NADP+ assay, A340. The settings on record: 5 mM Glc, 2 mM ATP, 2 mM MgCl2, pH 8.0; product inhibition; PEP/pyruvate kinase listed in the reaction medium; read-out: ADP. The text has this:
coupled G6PDH/NADP+ assay, A340 on ZmHXK7

Test [6] has as its target T2, ZmHXK6Δ30. Nature of the test: coupled pyruvate kinase/lactate dehydrogenase NADH assay, A340. Particulars: read-out: Substrate / Mannose; 2 mM ATP, 2 mM MgCl2, pH 8.0. The text has this:
coupled pyruvate kinase/lactate dehydrogenase NADH assay, A340 on ZmHXK6Δ30

Test [7] deals with T3, ZmHXK4Δ30. Described as above. The settings on record: read-out: Substrate / Mannose; 2 mM ATP, 2 mM MgCl2, pH 8.0. An excerpt: coupled pyruvate kinase/lactate dehydrogenase NADH assay, A340 on ZmHXK4Δ30
The target in test [8] is T1, ZmHXK5Δ30. The test is described as above. Particulars: read-out: Substrate / Mannose; 2 mM ATP, 2 mM MgCl2, pH 8.0. The text has this:
coupled pyruvate kinase/lactate dehydrogenase NADH assay, A340 on ZmHXK5Δ30

Where [9] appears, read: 5 mM Glc, 2 mM ATP, product inhibition, PEP/pyruvate kinase listed in the reaction medium, read-out: ADP.
Where [10] appears, read: read-out: Substrate / ATP, 5 mM Glc.
Where [11] appears, read: read-out: Substrate / Glucose, 2 mM ATP.

In the case of `Nc1ncnc2c1ncn2[C@@H]1O[C@H](COP(=O)(O)OP(=O)(O)O)[C@@H](O)[C@H]1O` [ADP], the IC50 was 690 ± 150 µM in test [1] (setting [9]); 720 ± 140 µM in test [2] (setting [9]); 710 ± 150 µM in test [3] (setting [9]); 3120 ± 1140 µM in test [4]; 6470 ± 1140 µM in test [5].
On to `Nc1ncnc2c1ncn2[C@@H]1O[C@H](COP(=O)(O)OP(=O)(O)OP(=O)(O)O)[C@@H](O)[C@H]1O` [ATP], for which the figures for the Km in test [1] (setting [10]), in test [2] (setting [10]) and in test [3] (setting [10]) were 136 ± 11.5 µM, 199 ± 12.8 µM and 135 ± 25.7 µM, respectively.
For `OC[C@H]1OC(O)[C@H](O)[C@@H](O)[C@@H]1O` (some centres unmarked) [glucose], the Km in test [1] (setting [11]) was found to be 137 ± 20 µM; in test [2] (setting [11]), 65.9 ± 15.2 µM; in test [3] (setting [11]), 196 ± 32 µM.
Take `OC[C@H]1OC(O)[C@@H](O)[C@@H](O)[C@@H]1O` (some centres unmarked) [mannose]: the results for the Km in test [6], in test [7] and in test [8] were 48.9 ± 1.06 µM, 139 ± 22.4 µM and 120 ± 33.3 µM, respectively.
